Assay [1] has as its system TRF1. Description: TRF1 nuclear immunofluorescence (TRF1 foci) in U251 cells. Type of assay: cell-based, human. To be noted: 10 μM, 24 h or 48 hr. The procedure:
For immunofluorescence analyses, cells were plated in a proper density in cell culture μCLEAR plates (Greiner) and fixed in 4% formaldehyde in PBS. Cells were permeabilized with 0.25% Triton in PBS and blocked with 5% BSA in PBS. Tissue sections were fixed in 10% buffered formalin (Sigma) and embedded in paraffin. After deparaffinization and citrate antigen retrieval, sections were permeabilized with 0.5% Triton in PBS and blocked with 1% BSA and 10% Australian FBS ([…]) in PBS. The antibodies were applied overnight in antibody diluents with background reducing agents (Invitrogen).
Immunofluorescence images were obtained using a confocal ultraspectral microscope (Leica TCS-SP5) or the Opera High Content Screening (HCS) system (Perkin Elmer). Quantifications were performed with Definiens software.
(§1) For in vitro studies, ETP-47228 ETP-47037 and ETP-50946 were dissolved in DMSO at a final concentration of 10 or 5 mM. Cells were treated at a concentration of 10 μM for 24 h or 48 hr.
(§2) To address whether these small molecules could represent a new therapeutic strategy for the treatment of GBM, the present inventors first tested the ability of the three independent TRF1 inhibitory molecules (ETP-47228, ETP-47037 and ETP-50946) to downregulate TRF1 protein levels in the U251 human GBM cell line.

Assay [2] concerns h676 GSCs. Description: Sphere formation assay in patient-derived h676 GSCs. In kind it is cell-based, human. The following applies: for sphere formation, dose-response: 7 days. The procedure:
(§3) FIG. 48. […] (A) Dose-response curves of the h676 GSCs treated 7 days with the indicated compounds. (B) Dose-response curves of the h543 GSCs treated 7 days with the indicated compounds. Data are represented as mean±SD.
(§4) Spheres were dissociated into single cells and seeded at a density of 50, 100, 200 and 400 cells/well in a 96 well plate. Neurosphere number was assessed after 7 days. Pictures were taken using Nikon Eclipse Ti-U microscope and neurosphere diameter was measured using NIS Elements BR software.
(§5) Given the promising results the present inventors obtained with the TRF1 chemical modulators in the U251 GBM cell line, the present inventors next set to address the effects of these compounds in two independent patient-derived primary GSCs (h543 and h676) cultures.
(§6) Next, the present inventors set to address whether the different compounds were able to block sphere formation in the h676 and h543 GSCs.

Assay [3] relates to h543 GSCs. Description: Sphere formation assay in patient-derived h543 GSCs. In kind it is cell-based, human. To be noted: for sphere formation, dose-response: 7 days. The procedure: as §3, §4, §5, §6
Assay [4] deals with U251 cells. Description: Neurosphere formation assay in U251 cells. In kind it is cell-based, human. To be noted: U251 in NSC media; seven days; vs DMSO. The procedure: as §4
Finally, the present inventors checked if the three chemical compounds had the ability to reduce sternness in these cells. They cultured U251 cells with NSC media in order to obtain a suspension culture enriched in stem cells. The inventors performed a sphere formation assay with these cells treated with ETP-47228, ETP-47037 and ETP-50946 or DMSO for seven days. […] Of note, all these effects recapitulated what the present inventors observed with Trf1 genetic downregulation (See 2.2).

In assay [5] the test system is TRF1. Description: Western blot of total TRF1 protein in U251 cells. In kind it is cell-based, human. To be noted: 10 μM, 24 h or 48 hr. The procedure: (§7) Nuclear protein extracts were obtained using Nuclear Cytosolic Fractionation Kit (Biovision) and protein concentration was determined using the Bio-Rad DC Protein Assay (Bio-Rad). Up to 15 μg of protein per extract were separated in SDS-polyacrylamide gels by electrophoresis. After protein transfer onto nitrocellulose membrane (Whatman), the membranes were incubated with the indicated antibodies. Antibody binding was detected after incubation with a secondary antibody coupled to horseradish peroxidase using chemiluminescence with ECL detection KIT (GE Healthcare)
Quantifications: Protein-band intensities were measured with ImageJ software and normalized against the loading control.
as §1, §2
A general note: A western blot detects proteins with antibodies after separation by electrophoresis.

The test system of assay [6] is TRF1. The assay is described as follows: Western blot of TRF1 protein levels in h676 GSCs. In kind it is cell-based, human. The following applies: 1 μM, 24 h. Here is the method:
FIG. 46. Screening of ETP-antitumoral library: Identification of TRF1 modulators in compounds approved by FDA or in clinical trials. (A) Drugs in ETP-antitumoral library distribution in Reactome Pathways. (B) Opera High ContentScreening system was used to identify compounds with the ability to inhibit TRF1, from representative images of confocal validation obtained from cells treated with DMSO (upper photograph of the right side of the panel and b) 1 μM of the tested compound, and determining the signal corresponding to TRF1 foci; TRF1 foci (green signal) can be appreciated clearly in the upper on the nuclear staining with DAPI (blue signal), but they have decreased in the lower photograph. (C) Representation of the inhibition of TRF1 levels by drugs belonging to different signaling pathways that modulate TRF1 at telomeres. Bar fillings vary depending on the signaling pathway. The results corresponding to three PI3K inhibitors inside the ETP-antitumoral library are represented by the three first bars from the right, validating the screening. (D) Structurally diverse MEK inhibitors tested in the chemical biology validation of the MEK/ERK pathway as modulator of TRF1 levels. (E) Structurally diverse ERK inhibitors tested in the chemical biology validation of the MEK/ERK pathway as modulator of TRF1 levels. (F) Inhibition of TRF1 levels by the MEK and ERK inhibitors represented in (D) and (E), respectively, measured by immunofluorescence. (G) Structurally diverse HSP90 inhibitors tested in the chemical biology validation of HSP90 pathway as modulator of TRF1 levels. (H) Inhibition of TRF1 levels by the HSP90 inhibitors represented in (G), measured by immunofluorescence. (I) Structurally diverse tubulin agent tested in the chemical biology validation of tubulin agents as modulator of TRF1 levels. (J) Inhibition of TRF1 levels by the tubulin agents represented in (I), measured by immunofluorescence. (K) Western Blot (up) and quantification (down) of TRF1 protein levels in the h676 GSCs after 24 h treatment with 1 μM of the indicated compounds. Data are represented as mean±SD. n represents biological replicates. Statistical analysis: unpaired t-test.
as §7
The present inventors treated GSCs for 24 h at 1 μM concentration and assessed TRF1 protein levels by western blot.

For assay [7], the system named is TRF1. Description: Screening of ETP-antitumoral library / phenotypic assay of TRF1 levels in CHA-9.3 cells. To be noted: for inhibition of TRF1 protein levels / TRF1 modulation in the screening: CHA-9.3 mouse lung cancer cell line, 1 μM, 24 h; for modulation of TRF1 levels by tubulin agents (validation): immunofluorescence. Type of assay: cell-based, mouse. Here is the method: All of them were tested at 1 μM during 24 h in the phenotypic assay that measure TRF1 levels.

Assay [8] has as its system p-AKT. Description: p-AKT activation (p-AKT/AKT western blot) in h676 GSCs. Type of assay: cell-based, human. The following applies: 1 μM, 24 h. Here is the method: FIG. 47. […] Western Blot (up) and quantification (down) of p-AKT/AKT ratio in the h676 GSCs after 24 h treatment with 1 μM of the indicated compounds. Data are represented as mean±SD. n represents biological replicates.
The present inventors have confirmed the modulation of TRF1 through the PI3K-AKT pathway (Méndez-Pertuz et al., 2017). In order to check whether the novel compounds act independently of this pathway, the present inventors treated the cells for 24 h at 1 μM concentration and checked p-AKT activation. They also included in this analysis some compounds previously identified by the same research group: namely ETP-47037 (PI3Ki) (García-Beccaria et al., 2015), and ETP-50946 (FIG. 47, right graph of the lower part).

Assay [9] deals with h676 GSCs. The assay is described as follows: Drug combination studies (sphere number and diameter) in h676 GSCs. Type of assay: cell-based, human. To be noted: number and diameter of spheres, 7 days. The source says:
FIG. 51. […] (A-F) Quantification of number of spheres (up) and diameter (down) in h676 GSCs treated with the indicated compounds. Representative image of the spheres (left). Data are represented as mean±SD (up) or mean±SD (down), n represents biological replicates (up) or number of spheres (down). Statistical analysis: unpaired t-test.
Using this concentration as a reference point, the present inventors designed a combinatorial matrix using different concentrations of the compounds (e.g. 2×GI50, GI50 and ½ GI50) to study all the possible combinations. Combination index is calculated to establish if the combination is synergistic, additive or antagonistic (FIG. 50A).

“Also recorded” adds a separate entry of the source.

For the molecule `NC(Cc1ccccc1)c1csc(Nc2ncccn2)n1` (racemic) [ETP-50946], the “TRF1 foci (immunofluorescence)” value in assay [1] is “effectively reduced”. In addition, in [2] (vs untreated controls), the diameter of spheres entry was “significant drastic reduction” and the number of spheres result is on record as “significant drastic reduction”. In addition, in assay [3] (vs untreated controls), the diameter of spheres entry was “significant drastic reduction” and the number of spheres result is “significant drastic reduction”. In assay [4], the diameter of neurospheres result was “strong reduction” and the number of neurospheres entry was “strong reduction”. Further, the “total TRF1 protein levels (western blot)” value in [5] was “effectively reduced”.
For the molecule `COc1cc(Nc2ncc3c(n2)-c2ccc(Cl)cc2C(c2c(F)cccc2OC)=NC3)ccc1C(=O)O` [Alisertib], the “degree of TRF1 inhibition (TRF1 protein levels by western blot)” value (“degree of TRF1 inhibition” for short) in assay [6] is “no ability to downregulate TRF1”. The “inhibition of TRF1 protein levels / TRF1 modulation in the screening” value in [7] is recorded as “inhibit TRF1 protein levels; also recorded: novel TRF1 modulators”. Moreover, the “dependence on p-AKT (p-AKT activation)” value in assay [8] was “act independently of p-AKT”.
On to `CC(=O)O[C@@]12CO[C@@H]1C[C@H](O)[C@@]1(C)C(=O)[C@H](O)C3=C(C)[C@@H](OC(=O)[C@H](O)[C@@H](NC(=O)OC(C)(C)C)c4ccccc4)C[C@@](O)([C@@H](OC(=O)c4ccccc4)[C@H]21)C3(C)C` [Docetaxel], for which, in assay [2], the “sphere formation, dose-response” value was “most potent compounds”. The “degree of TRF1 inhibition” value in assay [6] is “medium TRF1 modulators”. Besides, in assay [9], the “synergic effect in combination with PI3Ki (ETP-47037)” value (“synergic effect in combination” for short) was “significant synergic effect”. Further, in [3], the “sphere formation, dose-response” value was “most potent compounds”. In addition, in assay [7], the “inhibition of TRF1 protein levels / TRF1 modulation in the screening” value is “inhibit TRF1 protein levels; also recorded: novel TRF1 modulators” and the “modulation of TRF1 levels by tubulin agents (validation)” value is “more strongly”. In addition, the “dependence on p-AKT (p-AKT activation)” value in [8] is “act independently of p-AKT”.
`CN1CC[C@H](c2c(O)cc(O)c3c(=O)cc(-c4ccccc4Cl)oc23)[C@H](O)C1` [Flavopiridol]: in [6], the “degree of TRF1 inhibition” value was “medium TRF1 modulators”. In addition, the “inhibition of TRF1 protein levels / TRF1 modulation in the screening” value in assay [7] was “inhibit TRF1 protein levels; also recorded: novel TRF1 modulators”. The “dependence on p-AKT (p-AKT activation)” value in assay [8] was “act independently of p-AKT”.
For `C[C@@H](Oc1cc(-n2cnc3ccc(CN4CCN(C)CC4)cc32)sc1C(N)=O)c1ccccc1C(F)(F)F` [GSK461364], in that order: “no ability to downregulate TRF1”, “inhibit TRF1 protein levels; also recorded: novel TRF1 modulators” and “p-AKT dependent”.
Turning to `Nc1ccn([C@@H]2O[C@H](CO)[C@@H](O)C2(F)F)c(=O)n1` [Gemcitabine], the “sphere formation, dose-response” value in assay [2] and in assay [3] was “most potent compounds” each time. Also, in [6], the “degree of TRF1 inhibition” value is recorded as “medium TRF1 modulators”. Further, in assay [9], the “synergic effect in combination” value is recorded as “significant synergic effect”. Also, the “inhibition of TRF1 protein levels / TRF1 modulation in the screening” value in assay [7] was “inhibit TRF1 protein levels; also recorded: novel TRF1 modulators”. Also, the “dependence on p-AKT (p-AKT activation)” value in assay [8] was “act independently of p-AKT”.
Regarding `COc1ccc(-c2ccc3c(N4CCOCC4)nc(N4C[C@@H](C)O[C@@H](C)C4)nc3n2)cc1CO` [KU-0063794], the “degree of TRF1 inhibition” value in [6] is on record as “medium TRF1 modulators”. Also, in assay [7], the “inhibition of TRF1 protein levels / TRF1 modulation in the screening” value is “inhibit TRF1 protein levels; also recorded: novel TRF1 modulators”. Further, the “dependence on p-AKT (p-AKT activation)” value in assay [8] is “p-AKT dependent”.
On to `O=C(Nc1ccc2[nH]nc(-c3ccncc3)c2c1)[C@@H]1CCN(CC(=O)N2CCN(c3ccc(-c4ncccn4)cc3)CC2)C1` [SCH772984], for which, in [6], the “degree of TRF1 inhibition” value is on record as “potent TRF1 modulators”. Moreover, the “synergic effect in combination” value in assay [9] is reported as “significant synergic effect”. In addition, the “inhibition of TRF1 protein levels / TRF1 modulation in the screening” value is “novel TRF1 modulators” in assay [7] and “inhibit TRF1 protein levels” in assay [7] (listed as ERKi). In addition, the “dependence on p-AKT (p-AKT activation)” value in [8] was “act independently of p-AKT”.
On to `CC(=O)O[C@H]1C(=O)[C@@]2(C)[C@H]([C@H](OC(=O)c3ccccc3)[C@]3(O)C[C@H](OC(=O)[C@H](O)[C@@H](NC(=O)c4ccccc4)c4ccccc4)C(C)=C1C3(C)C)[C@]1(OC(C)=O)CO[C@@H]1C[C@@H]2O` [paclitaxel], for which the “modulation of TRF1 levels by tubulin agents (validation)” value in [7] is reported as “more strongly”.

The values above are taken from patent US20220054496A1, “MODULATION OF TRF1 FOR BRAIN CANCER TREATMENT” (Fundación Del Sector Público Estatal Centro Nacional De …, priority 2018, published 2022).
